Patent US20130244876A1, “Synergistic compositions comprising ethephon and saflufenacil or cyclanilide and saflufenacil” (priority 2012, published 2013)

Tests used:
soybean variety Maxi = experiment: Greenhouse trial for desiccation in soybean; assay type: in vivo; settings: foliar spray 100 L/ha, three days after application
Experimental: (§1) The trial was established under greenhouse conditions. The objective was to evaluate the dessication activity of saflufenacil solo and in mixture with cyclanilide and ethephon.
(§2) The plants (soybean variety Maxi, cotton Variety Oxford) were sown (Dec. 3, 2012) in pots with 8.5 cm of diameter using standard soil from Limburgerhof, Palatinate, Germany, emerging after 3 days, maintained during the entire growth period at temperatures of about 20 to 24° C., relative humidity of about 65 to 70%, watering in the afternoon or in the morning. Each treatment was composed by 4 replications (one plant per pot).
(§3) Foliar treatments were applied 51 days after sowing (Jan. 23, 2013) in a spray cabin with one Flat fan nozzle, using 100 L/ha as application volume. The spray solutions were prepared according to the given concentration of Tables 1 and 2 and contained in addition to the formulations used a surfactant (DASH HC, BASF S.A., Brazil; EC formulation based on methyl esters) at 0,5% (v/v).
(§4) Saflufenacil (70% (w/w), WG formulation; Sharpen® BASF Corporation, USA)
(§5) Ethephon (480 g/L, SL formulation)
(§6) Cyclanilide, (300 g/kg, WP formulation)
(§7) Assessments were made at three days after applicaton in soybean and seven days after application in cotton by evaluating percentage of symptoms of damage to the crop, mainly chlorosis and necrosis.

cotton Variety Oxford = experiment: Greenhouse trial for desiccation in cotton; assay type: in vivo; settings: foliar spray 100 L/ha, seven days after application
Experimental: as §1, §2, §3, §4, §5, §6, §7

[1] = 20 g of a.i. per 100 L, percentage of symptoms of damage
[2] = 1.5 g of a.i. per 100 L, percentage of symptoms of damage
[3] = 1.4 g of a.i. per 100 L, percentage of symptoms of damage (chlorosis and necrosis)

## O=P(O)(O)CCCl [Ethephon]
Soybean variety Maxi; [1]
  Observed activity (%): 0%
Cotton Variety Oxford; [1]
  Observed activity (%): 0%

## O=C(O)C1(C(=O)Nc2ccc(Cl)cc2Cl)CC1 [Cyclanilide]
Soybean variety Maxi; [2]
  Observed activity (%): 0%
Cotton Variety Oxford; [2]
  Observed activity (%): 0%

## CC(C)N(C)S(=O)(=O)NC(=O)c1cc(-n2c(=O)cc(C(F)(F)F)n(C)c2=O)c(F)cc1Cl [Saflufenacil]
Soybean variety Maxi; [3]
  Observed activity (%): 15%
Cotton Variety Oxford; [3]
  Observed activity (%): 18.8%
